Experimental data: patent US11072632B2, “Inhibitors of 17β-HSD1, 17β-HSD3 and 17β-HSD10” (UNIVERSITÉ LAVAL, priority 2011, dated 2021)

How the values were obtained:
17β-HSD3 [1] = molecular target: T1, 17β-HSD3 (Homo sapiens, UniProt P37058); test: Inhibition of 17β-HSD3 in homogenated HEK-293 cells; type: biochemical; settings: for Homo (%) (0.01 μM) / Homo (%) (0.1 μM): Table 3; for inhibition at 0.01 µM: read-out: Homo (%) (0.01 μM), Table 4; for inhibition at 0.1 µM: read-out: Homo (%) (0.1 μM), Table 4; for inhibition at 1 µM: read-out: Homo (%) (1.0 μM), Table 4
T1 construct: expressed in transfected cells; host or cells: HEK-293 (homogenate)
T1 sequence (P37058 1-310): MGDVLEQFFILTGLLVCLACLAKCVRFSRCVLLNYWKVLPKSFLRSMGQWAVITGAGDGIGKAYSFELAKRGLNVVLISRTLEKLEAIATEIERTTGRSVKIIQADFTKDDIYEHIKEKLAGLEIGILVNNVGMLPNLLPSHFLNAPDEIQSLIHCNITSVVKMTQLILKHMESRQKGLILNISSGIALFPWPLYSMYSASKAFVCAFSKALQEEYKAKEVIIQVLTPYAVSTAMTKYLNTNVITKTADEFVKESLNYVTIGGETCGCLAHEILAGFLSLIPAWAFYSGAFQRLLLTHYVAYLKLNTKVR

17β-HSD3 [2] = molecular target: T1, 17β-HSD3; test: Inhibition of 17β-HSD3 in intact HEK-293 cells; type: cell-based; settings: 0.1 μM; for Intact cells (%) (0.1 μM): Table 3; for inhibition at 0.1 µM: HEK293, 1 h, read-out: Intact cells (%) (0.1 μM), Table 4; for Intact cells (%) (0.1 μM), tested in another experiment: Table 4, footnote b

Row | SMILES | Homo (%) (0.01 μM) (17β-HSD3 [1]) | Homo (%) (0.1 μM) (17β-HSD3 [1]) | Intact cells (%) (0.1 μM) (17β-HSD3 [2]) | inhibition at 0.01 µM (17β-HSD3 [1]) | inhibition at 0.1 µM (17β-HSD3 [1]) | inhibition at 1 µM (17β-HSD3 [1]) | inhibition at 0.1 µM (17β-HSD3 [2]) | Intact cells (%) (0.1 μM), tested in another experiment (17β-HSD3 [2])
1 | CC1CN(C(=O)c2ccccc2)C(C)CN1C[C@@]1(O)CC[C@@]2(C)[C@@H](CC[C@@H]3[C@@H]2CC[C@]2(C)C(=O)CC[C@@H]32)C1 (stereo partly drawn) [Compound 13a, (3α,5α)-3-{[(2ξ,5ξ)-2,5-dimethyl-4-(phenylcarbonyl)piperazin-1-yl]methyl}-3-hydroxyandrostan-17-one] | 24% | 87% | 78% | – | – | – | – | –
2 | CC1CN(C(=O)C2CCCCC2)C(C)CN1C[C@@]1(O)CC[C@@]2(C)[C@@H](CC[C@@H]3[C@@H]2CC[C@]2(C)C(=O)CC[C@@H]32)C1 (stereo partly drawn) [Compound 13b, (3α,5α)-3-{[(2ξ,5ξ)-4-(cyclohexylcarbonyl)-2,5-dimethylpiperazin-1-yl]methyl}-3-hydroxyandrostan-17-one] | 24% | 90% | 77% | – | – | – | – | –
3 | CC1CN(C(=O)c2cccc(C(F)(F)F)c2)C(C)CN1CC1(O)CCC2(C)C(CCC3C4CCC(=O)C4(C)CCC32)C1 (stereo not drawn) [Compound 13c, (3α,5α)-3-{[(2ξ,5ξ)-2,5-dimethyl-4-{[3-(trifluoromethyl)phenyl]carbonyl}piperazin-1-yl]methyl}-3-hydroxyandrostan-17-one] | 28% | 89% | 70% | – | – | – | – | –
4 | Cc1ccc(CN2C[C@]3(CC[C@@]4(C)[C@@H](CC[C@@H]5[C@@H]4CC[C@]4(C)C(=O)CC[C@@H]54)C3)OC2=O)cc1 [Compound 17b, (3R,5S,8R,9S,10S,13S,14S)-10,13-dimethyl-3′-(4-methylbenzyl)tetrahydrodecahydro-2′H-spiro[cyclopenta[α]phenanthrene-3,5′-[1,3]oxazolidine]-2′,17(2H)-dione] | – | – | – | 17% | 81% | 93% | 38% | –
5 | COc1ccc(CN2C[C@]3(CC[C@@]4(C)[C@@H](CC[C@@H]5[C@@H]4CC[C@]4(C)C(=O)CC[C@@H]54)C3)OC2=O)cc1 [Compound 17c, (3R,5S,8R,9S,10S,13S,14S)-3′-(4-methoxybenzyl)-10,13-dimethyltetradecahydro-2′H-spiro[cyclopenta[α]phenanthrene-3,5′-[1,3]oxazolidine]-2′,17(2H)-dione] | – | – | – | 5% | 84% | 93% | 43% | –
6 | C[C@]12CC[C@@]3(C[C@@H]1CC[C@@H]1[C@@H]2CC[C@]2(C)C(=O)CC[C@@H]12)CN(Cc1ccc(C(F)(F)F)cc1)C(=O)O3 [Compound 17d, (3R,5S,8R,9S,10S,13S,14S)-10,13-dimethyl-3′-[4-(trifluoromethyl)benzyl]tetradecahydro-2′H-spiro[cyclopenta[α]phenanthrene-3,5′-[1,3]oxazolidine]-2′,17(2H)-dione] | – | – | – | 25% | 80% | – | 43% | –
7 | C[C@]12CC[C@@]3(C[C@@H]1CC[C@@H]1[C@@H]2CC[C@]2(C)C(=O)CC[C@@H]12)CN(Cc1ccc(C(F)(F)F)nc1)C(=O)O3 [Compound 17e] | – | – | – | 3% | 65% | – | 36% | –
8 | C[C@]12CC[C@@]3(C[C@@H]1CC[C@@H]1[C@@H]2CC[C@]2(C)C(=O)CC[C@@H]12)CN(Cc1ccccc1C(F)(F)F)C(=O)O3 [Compound 17f, (3R,5S,8R,9S,10S,13S,14S)-10,13-dimethyl-3′-[2-(trifluoromethyl)benzyl]tetradecahydro-2′H-spiro[cyclopenta[α]phenanthrene-3,5′-[1,3]oxazolidine]-2′,17(2H)-dione] | – | – | – | 17% | 81% | – | 35% | –
9 | C[C@]12CC[C@@]3(C[C@@H]1CC[C@@H]1[C@@H]2CC[C@]2(C)C(=O)CC[C@@H]12)CN(Cc1cccc(C(F)(F)F)c1)C(=O)O3 [Compound 17g, (3R,5S,8R,9S,10S,13S,14S)-10,13-dimethyl-3′-[3-(trifluoromethyl)benzyl]tetradecahydro-2′H-spiro[cyclopenta[α]phenanthrene-3,5′-[1,3]oxazolidine]-2′,17(2H)-dione] | – | – | – | 16% | 80% | – | 36% | –
10 | C[C@]12CC[C@@]3(C[C@@H]1CC[C@@H]1[C@@H]2CC[C@]2(C)C(=O)CC[C@@H]12)CN(Cc1cc(C(F)(F)F)cc(C(F)(F)F)c1)C(=O)O3 [Compound 17h, (3R,5S,8R,9S,10S,13S,14)-3′-[3,5-bis(trifluoromethyl)benzyl]-10,13-dimethyletradecahydro-2′H-spiro[cyclopenta[α]phenanthrene-3,5′-[1,3]oxazolidine]-2′,17(2H)-dione] | – | – | – | 12% | 66% | – | 35% | –
11 | C[C@]12CC[C@@]3(C[C@@H]1CC[C@@H]1[C@@H]2CC[C@]2(C)C(=O)CC[C@@H]12)CN(C1CCCCC1)C(=O)O3 [Compound 17i, (3R,5S,8R,9S,10S,13S,14S)-3′-cyclohexyl-10,13-dimethyltetradecahydro-2′H-spiro[cyclopenta[α]phenanthrene-3,5′-[1,3]oxazolidine]-2′,17(2H)-dione] | – | – | – | 13% | 75% | 78% | 29% | –
12 | Cc1ccc(CN2C[C@]3(CC[C@@]4(C)[C@@H](CC[C@@H]5[C@@H]4CC[C@]4(C)C(=O)C(C)(C)C[C@@H]54)C3)OC2=O)cc1 [Compound 18, (3R,5S,8R,9S,10S,13S,14S)-10,13,16,16-tetramethyl-3′-(4-methylbenzyl)tetrahydrodecahydro-2′H-spiro[cyclopenta[α]phenanthrene-3,5′-[1,3]oxazolidine]-2′,17(2H)-dione] | – | – | – | 2% | 22% | 74% | 18% | –
13 | C[C@]12CC[C@@]3(C[C@@H]1CC[C@@H]1[C@@H]2CC[C@]2(C)C(=O)CC[C@@H]12)CN(CCBr)C(=O)O3 [Compound 22, (3R,5S,8R,9S,10S,13S,14S)-3′-(2-bromoethyl)-10,13-dimethyltetrahydrodecahydro-2′H-spiro[cyclopenta[α]phenanthrene-3,5′-[1,3]oxazolidine]-2′,17(2H)-dione] | – | – | – | 17% | – | 93% | 31% | –
14 | Cc1cccc(OCCN2C[C@]3(CC[C@@]4(C)[C@@H](CC[C@@H]5[C@@H]4CC[C@]4(C)C(=O)CC[C@@H]54)C3)OC2=O)c1 [Compound 23a, (3R,5S,8R,9S,10S,13S,14S)-10,13-dimethyl-3′-[2-(3-methylphenoxy)ethyl]tetrahydrodecahydro-2′H-spiro[cyclopenta[α]phenanthrene-3,5′-[1,3]oxazolidine]-2′,17(2H)-dione] | – | – | – | 13% | – | 95% | 40% | –
15 | Cc1cccc(S(=O)(=O)CCN2C[C@]3(CC[C@@]4(C)[C@@H](CC[C@@H]5[C@@H]4CC[C@]4(C)C(=O)CC[C@@H]54)C3)OC2=O)c1 [Compound 23b] | – | – | – | 0% | 52% | 93% | 5% | –
16 | C[C@]12CC[C@@]3(C[C@@H]1CC[C@@H]1[C@@H]2CC[C@]2(C)C(=O)CC[C@@H]12)CN(CCN1CCCCC1)C(=O)O3 [Compound 23c, (3R,5S,8R,9S,10S,13S,14S)-10,13-dimethyl-3′-[2-(piperidin-1-yl)ethyl]tetrahydrodecahydro-2′H-spiro[cyclopenta[α]phenanthrene-3,5′-[1,3]oxazolidine]-2′,17(2H)-dione] | – | – | – | 0% | 0% | 21% | – | 10^b %
17 | CCN(CCN1C[C@]2(CC[C@@]3(C)[C@@H](CC[C@@H]4[C@@H]3CC[C@]3(C)C(=O)CC[C@@H]43)C2)OC1=O)C1CCCCC1 [Compound 23e, (3R,5S,8R,9S,10S,13S,14S)-3′-{2-[cyclohexyl(ethyl)amino]ethyl}-10,13-dimethyltetradecahydro-2′H-spiro[cyclopenta[α]phenanthrene-3,5′-[1,3]oxazolidine]-2′,17(2H)-dione] | – | – | – | 2% | 21% | 72% | 2% | –
18 | CCCN(CCC)CCN1C[C@]2(CC[C@@]3(C)[C@@H](CC[C@@H]4[C@@H]3CC[C@]3(C)C(=O)CC[C@@H]43)C2)OC1=O [Compound 23f, (3R,5S,8R,9S,10S,13S,14S)-3′-[2-(dipropylamino)ethyl]-10,13-dimethyltetradecahydro-2′H-spiro[cyclopenta[α]phenanthrene-3,5′-[1,3]oxazolidine]-2′,17(2H)-dione] | – | – | – | 0% | 10% | 62% | – | 8^b %
19 | CCCN(CCN1C[C@]2(CC[C@@]3(C)[C@@H](CC[C@@H]4[C@@H]3CC[C@]3(C)C(=O)CC[C@@H]43)C2)OC1=O)C(=O)CC [Compound 23g, N-{(3R,5S,8R,9S,10S,13S,14S)-10,13-dimethyl-2′,17-dioxohexadecahydro-3′H-spiro[cyclopenta[α]phenanthrene-3,5′-[1,3]oxazolidine-3′-yl]ethyl}-N-propylpropanamide] | – | – | – | 0% | 35% | 80% | 25% | –
